What all share (format): functional
Experiment [1] relates to Escherichia coli. In words: Antibacterial activity against Escherichia coli ATCC 25922 assessed as inhibition of bacterial growth measured after 24 hrs incubation.
Experiment [2] has as its system Staphylococcus aureus. In words: Antibacterial activity against Staphylococcus aureus ATCC 25923 assessed as inhibition of bacterial growth measured after 24 hrs incubation.
The subject of a further experiment is Klebsiella pneumoniae. In words: Antibacterial activity against Klebsiella pneumonia assessed as inhibition of bacterial growth measured after 24 hrs incubation.
Experiment [3] deals with Staphylococcus aureus. In words: Antibacterial activity against Staphylococcus aureus assessed as inhibition of bacterial growth measured after 24 hrs incubation.
For experiment [4], the system named is Staphylococcus aureus. In words: Antibacterial activity against methicillin-resistant Staphylococcus aureus N315 assessed as inhibition of bacterial growth measured after 24 hrs incubation.
Experiment [5] deals with Pseudomonas aeruginosa. In words: Antibacterial activity against Pseudomonas aeruginosa ATCC 27853 assessed as inhibition of bacterial growth measured after 24 hrs incubation.
The next experiment concerns Enterococcus faecalis. In words: Antibacterial activity against Enterococcus faecalis assessed as inhibition of bacterial growth measured after 24 hrs incubation.
The test system of a further experiment is Acinetobacter baumannii. In words: Antibacterial activity against Acinetobacter baumannii assessed as inhibition of bacterial growth measured after 24 hrs incubation.
For experiment [6], the system named is Staphylococcus aureus. In words: Antibacterial activity against Staphylococcus aureus ATCC 29213 assessed as inhibition of bacterial growth measured after 24 hrs incubation.
Experiment [7] relates to Escherichia coli. In words: Antibacterial activity against Escherichia coli assessed as inhibition of bacterial growth measured after 24 hrs incubation.
For experiment [8], the system named is Pseudomonas aeruginosa. In words: Antibacterial activity against Pseudomonas aeruginosa assessed as inhibition of bacterial growth measured after 24 hrs incubation.

In brackets after ≈: the same amount, converted by molar mass.

In general, MIC refers to the lowest concentration that inhibits growth of the organism.

For `CCn1cc(C(=O)O)c(=O)c2cc(F)c(N3CCN(C(=O)/C(C#N)=C/c4cn(CCCN5CCOCC5)c5ccccc45)CC3)cc21`, the MIC in the experiment with Escherichia coli [1] was determined as 1 µg/mL (≈ 1.56 µM); in the experiment with Staphylococcus aureus [2], 0.25 µg/mL (≈ 0.39 µM); in the experiment on Klebsiella pneumoniae, 0.25 µg/mL (≈ 0.39 µM); in the experiment on Staphylococcus aureus [3], 2 µg/mL (≈ 3.12 µM); in the experiment on Staphylococcus aureus [4], 0.25 µg/mL (≈ 0.39 µM); in the experiment with Pseudomonas aeruginosa [5], 1 µg/mL (≈ 1.56 µM). For the same compound, the minimum inhibitory concentration (MIC) with Enterococcus faecalis is 1 µg/mL (≈ 1.56 µM); in the experiment on Acinetobacter baumannii it was 0.5 µg/mL (≈ 0.78 µM); in the experiment with Staphylococcus aureus [6], 0.25 µg/mL (≈ 0.39 µM); in the experiment on Escherichia coli [7], 1 µg/mL (≈ 1.56 µM); in the experiment on Pseudomonas aeruginosa [8] it was 0.25 µg/mL (≈ 0.39 µM).
For the compound `CCn1cc(C(=O)O)c(=O)c2cc(F)c(N3CCN(C(=O)/C(C#N)=C/c4cn(CC5CCCCC5)c5ccccc45)CC3)cc21`, the minimal inhibitory concentration (MIC) with Escherichia coli [1] came out at 4 µg/mL (≈ 6.56 µM); with Staphylococcus aureus [2], 16 µg/mL (≈ 26.2 µM); with Klebsiella pneumoniae, 1 µg/mL (≈ 1.64 µM); with Staphylococcus aureus [3], 32 µg/mL (≈ 52.5 µM); with Staphylococcus aureus [4], 16 µg/mL (≈ 26.2 µM); in the experiment with Pseudomonas aeruginosa [5], 1 µg/mL (≈ 1.64 µM). Further, the minimal inhibitory concentration (MIC) in the experiment with Enterococcus faecalis came to 32 µg/mL (≈ 52.5 µM); in the experiment with Acinetobacter baumannii it was 1 µg/mL (≈ 1.64 µM); with Staphylococcus aureus [6] it was 1 µg/mL (≈ 1.64 µM); with Escherichia coli [7], 1 µg/mL (≈ 1.64 µM); in the experiment on Pseudomonas aeruginosa [8] it was 2 µg/mL (≈ 3.28 µM).
As for `CCn1cc(C(=O)O)c(=O)c2cc(F)c(N3CCN(C(=O)/C(C#N)=C/c4c(C)[nH]c5ccccc45)CC3)cc21`, the minimum inhibitory concentration (MIC) in the experiment on Escherichia coli [1] came to 0.25 µg/mL (≈ 0.474 µM); with Staphylococcus aureus [2], 4 µg/mL (≈ 7.58 µM); with Klebsiella pneumoniae, 2 µg/mL (≈ 3.79 µM); in the experiment with Staphylococcus aureus [3] it was 1 µg/mL (≈ 1.9 µM); with Staphylococcus aureus [4], 2 µg/mL (≈ 3.79 µM); with Pseudomonas aeruginosa [5] it was 0.5 µg/mL (≈ 0.948 µM). Besides, the MIC was 1 µg/mL (≈ 1.9 µM) in the experiment with Enterococcus faecalis; 1 µg/mL (≈ 1.9 µM) with Acinetobacter baumannii; 0.25 µg/mL (≈ 0.474 µM) in the experiment on Staphylococcus aureus [6]; 1 µg/mL (≈ 1.9 µM) with Escherichia coli [7]; 1 µg/mL (≈ 1.9 µM) with Pseudomonas aeruginosa [8].
Take `CCn1cc(C(=O)O)c(=O)c2cc(F)c(N3CCN(C(=O)/C(C#N)=C/c4cn(CC(N)=O)c5ccccc45)CC3)cc21`: the minimum inhibitory concentration (MIC) in the experiment with Escherichia coli [1] turned out to be 0.25 µg/mL (≈ 0.438 µM); in the experiment on Staphylococcus aureus [2], 8 µg/mL (≈ 14 µM); in the experiment with Klebsiella pneumoniae, 1 µg/mL (≈ 1.75 µM); in the experiment on Staphylococcus aureus [3] it was 32 µg/mL (≈ 56.1 µM); with Staphylococcus aureus [4], 0.25 µg/mL (≈ 0.438 µM); with Pseudomonas aeruginosa [5], 1 µg/mL (≈ 1.75 µM). The minimum inhibitory concentration (MIC) turned out to be 16 µg/mL (≈ 28 µM) in the experiment on Enterococcus faecalis; 8 µg/mL (≈ 14 µM) in the experiment on Acinetobacter baumannii; 16 µg/mL (≈ 28 µM) in the experiment with Staphylococcus aureus [6]; 0.5 µg/mL (≈ 0.876 µM) with Escherichia coli [7]; 8 µg/mL (≈ 14 µM) in the experiment with Pseudomonas aeruginosa [8].
Regarding `CCOC(=O)Cn1cc(/C=C(\C#N)C(=O)N2CCN(c3cc4c(cc3F)c(=O)c(C(=O)O)cn4CC=C(C)C)CC2)c2ccccc21`, the minimal inhibitory concentration (MIC) with Escherichia coli [1] stood at 0.5 µg/mL (≈ 0.782 µM); with Staphylococcus aureus [2] it was 16 µg/mL (≈ 25 µM); in the experiment on Klebsiella pneumoniae it was 1 µg/mL (≈ 1.56 µM); in the experiment on Staphylococcus aureus [3] it was 16 µg/mL (≈ 25 µM); with Staphylococcus aureus [4] it was 8 µg/mL (≈ 12.5 µM); in the experiment with Pseudomonas aeruginosa [5] it was 16 µg/mL (≈ 25 µM). Further, the minimal inhibitory concentration (MIC) amounted to 0.25 µg/mL (≈ 0.391 µM) in the experiment with Enterococcus faecalis; 16 µg/mL (≈ 25 µM) with Acinetobacter baumannii; 8 µg/mL (≈ 12.5 µM) in the experiment with Staphylococcus aureus [6]; 32 µg/mL (≈ 50 µM) with Escherichia coli [7]; 16 µg/mL (≈ 25 µM) in the experiment with Pseudomonas aeruginosa [8].
On to `CCn1cc(C(=O)O)c(=O)c2cc(F)c(N3CCN(C(=O)/C(C#N)=C/c4cn(CC5CC5)c5ccccc45)CC3)cc21`, for which the minimal inhibitory concentration (MIC) in the experiment on Escherichia coli [1] stood at 1 µg/mL (≈ 1.76 µM); with Staphylococcus aureus [2], 1 µg/mL (≈ 1.76 µM); in the experiment with Klebsiella pneumoniae, 1 µg/mL (≈ 1.76 µM); in the experiment with Staphylococcus aureus [3], 4 µg/mL (≈ 7.05 µM); with Staphylococcus aureus [4], 0.5 µg/mL (≈ 0.881 µM); with Pseudomonas aeruginosa [5], 0.5 µg/mL (≈ 0.881 µM). The MIC worked out at 1 µg/mL (≈ 1.76 µM) with Enterococcus faecalis; 2 µg/mL (≈ 3.52 µM) with Acinetobacter baumannii; 0.5 µg/mL (≈ 0.881 µM) with Staphylococcus aureus [6]; 4 µg/mL (≈ 7.05 µM) in the experiment on Escherichia coli [7]; 1 µg/mL (≈ 1.76 µM) in the experiment with Pseudomonas aeruginosa [8].
In the case of `C#CCn1cc(/C=C(\C#N)C(=O)N2CCN(c3cc4c(cc3F)c(=O)c(C(=O)O)cn4CC)CC2)c2ccccc21`, the MIC came out at 0.5 µg/mL (≈ 0.906 µM) with Escherichia coli [1]; 0.25 µg/mL (≈ 0.453 µM) in the experiment with Staphylococcus aureus [2]; 0.25 µg/mL (≈ 0.453 µM) in the experiment on Klebsiella pneumoniae; 0.25 µg/mL (≈ 0.453 µM) in the experiment with Staphylococcus aureus [3]; 0.25 µg/mL (≈ 0.453 µM) in the experiment on Staphylococcus aureus [4]; 4 µg/mL (≈ 7.25 µM) in the experiment on Pseudomonas aeruginosa [5]. Besides, the MIC was 0.5 µg/mL (≈ 0.906 µM) in the experiment on Enterococcus faecalis; 0.25 µg/mL (≈ 0.453 µM) in the experiment on Acinetobacter baumannii; 0.5 µg/mL (≈ 0.906 µM) in the experiment on Staphylococcus aureus [6]; 1 µg/mL (≈ 1.81 µM) in the experiment with Escherichia coli [7]; 0.5 µg/mL (≈ 0.906 µM) in the experiment with Pseudomonas aeruginosa [8].
With `CCn1cc(C(=O)O)c(=O)c2cc(F)c(N3CCN(C(=O)/C(C#N)=C/c4cn(CC(=O)O)c5ccccc45)CC3)cc21`, the MIC was found to be 0.5 µg/mL (≈ 0.875 µM) in the experiment with Escherichia coli [1]; 0.5 µg/mL (≈ 0.875 µM) in the experiment on Staphylococcus aureus [2]; 0.25 µg/mL (≈ 0.437 µM) in the experiment on Klebsiella pneumoniae; 2 µg/mL (≈ 3.5 µM) with Staphylococcus aureus [3]; 0.5 µg/mL (≈ 0.875 µM) in the experiment on Staphylococcus aureus [4]; 0.5 µg/mL (≈ 0.875 µM) with Pseudomonas aeruginosa [5]. The MIC with Enterococcus faecalis is 0.5 µg/mL (≈ 0.875 µM); in the experiment on Acinetobacter baumannii, 0.25 µg/mL (≈ 0.437 µM); in the experiment on Staphylococcus aureus [6] it was 1 µg/mL (≈ 1.75 µM); with Escherichia coli [7], 0.5 µg/mL (≈ 0.875 µM); in the experiment with Pseudomonas aeruginosa [8] it was 0.5 µg/mL (≈ 0.875 µM).
On to `CCCn1cc(/C=C(\C#N)C(=O)N2CCN(c3cc4c(cc3F)c(=O)c(C(=O)O)cn4CC)CC2)c2ccccc21`, for which the MIC in the experiment on Escherichia coli [1] was found to be 0.25 µg/mL (≈ 0.45 µM); in the experiment with Staphylococcus aureus [2], 4 µg/mL (≈ 7.2 µM); in the experiment on Klebsiella pneumoniae it was 0.25 µg/mL (≈ 0.45 µM); in the experiment on Staphylococcus aureus [3], 0.5 µg/mL (≈ 0.9 µM); in the experiment with Staphylococcus aureus [4], 2 µg/mL (≈ 3.6 µM); in the experiment with Pseudomonas aeruginosa [5] it was 1 µg/mL (≈ 1.8 µM). For the same compound, the MIC with Enterococcus faecalis is 1 µg/mL (≈ 1.8 µM); in the experiment with Acinetobacter baumannii, 0.25 µg/mL (≈ 0.45 µM); in the experiment on Staphylococcus aureus [6], 1 µg/mL (≈ 1.8 µM); with Escherichia coli [7], 0.5 µg/mL (≈ 0.9 µM); in the experiment on Pseudomonas aeruginosa [8], 0.5 µg/mL (≈ 0.9 µM).
